{"source": "patent US7662842B2", "about": "“Thiazolidinone amides, thiazolidine carboxylic acid amides, and serine amides, including polyamine conjugates thereof, as selective anti-cancer agents” (Ohio State Univesity Research Foundation, priority 2003, dated 2010)", "key": {"SKMEL-188 melanoma cells [1]": {"tested_on": "SKMEL-188 melanoma cells", "assay": "DNA content analysis by flow cytometry", "format": "cell-based", "conditions": "SKMEL-188, 48 hours, 6 μM and 60 μM, FIG. 11B, Hydrochloride", "experimental": "SKMEL-188 melanoma cells were incubated with Compound 4(R) at 60 μM for 48 hours. FIG. 11A is a graph showing the cytotoxicity as measured by LDH release from the cells following treatment. Data is presented as mean±SEM (n=8), *p<0.05, **p<0.005. FIG. 11B is a pair of graphs that show the DNA content, as measured by flow cytometry, of cells that were exposed to control (left) and Compound 4(R) (right).\nDNA Content Analysis: SKMEM-188 cells were seeded in 10 cm Petri dishes at a density of 10^6 cell per dish. At 12 hours, the medium was changed to 5% FBS with different concentrations of the testing compound. Cells were incubated for 48 hours, and media with compounds were changed every 24 hours. Cells were trypsinized, washed with PBS, and fixed in ice-cold 70% ethanol. After fixing, the ethanol was removed by centrifugation, and cells were incubated in phosphate-citrate buffer (0.2M Na2HPO4, 4 mM citric acid, pH=7.8) for 1 hour. […] Samples were shaken for 30 minutes, and analyzed with FACS Caliber cytometer (Becton Dickinson, San Diego, Calif.). Data was analyzed and graphs were prepared using Modfit 2.0 (Verity Sofware House, Topsham, Me.).\nTo examine more closely the cell death induced by the tested compounds, LDH release was measured by calorimetric assay and DNA content was analyzed by flow cytometry. […]"}, "human dermal fibroblasts": {"tested_on": "human dermal fibroblasts", "assay": "Sulforhodamine B assay, fibroblast control cells", "format": "cell-based", "conditions": "Homo sapiens, Fibroblast, 48 h, SRB assay, 48 h incubation"}, "LNCaP cells": {"tested_on": "LNCaP cells", "assay": "DNA fragmentation by agarose gel electrophoresis", "format": "cell-based, human", "conditions": "treatment for 24 to […], 3-50 μM, FIGS. 4A-B", "experimental": "In FIG. 4B, the dose and exposure time are indicated for compound 5 as follows: lane 1, 100 bp DNA marker; lane 2, 5 μM for 24 h; lane 3, 5 μM for 48 h; lane 4, 5 μM for 72 h; lane 5, 5 μM for 96 h; lane 6, 3 μM for 96 h; lane 7, 8 μM for 48 h; and lane 8, 8 μM for 72 h."}, "SKMEL-188 melanoma cells [2]": {"tested_on": "SKMEL-188 melanoma cells", "assay": "Sulforhodamine B assay in melanoma cells, SKMEL-188", "format": "cell-based", "conditions": "SK-MEL-188, 48 h, SRB assay, 48 h incubation; melanoma cell line"}}}
{"smiles": "CCCCCCCCCCCCCCNC(=O)[C@@H]1CSC(c2ccccc2)N1.Cl", "note": "(mixture of isomers) [Compound 4, (2RS, 4R)-2-Phenylthiazolidine-4-carboxylic acid tetradecylamide Hydrochloride]", "values": [{"measurement": "DNA content / mode of cell death", "setting": "SKMEL-188 melanoma cells [1]; listed as 4 (R enantiomer)", "result": "causes necrotic cell death"}, {"measurement": "DNA content / mode of cell death", "setting": "SKMEL-188 melanoma cells [1]; listed as 4R", "result": "disappearance of peaks corresponding to viable, proliferating cells"}, {"measurement": "IC50", "setting": "human dermal fibroblasts", "result": 6.1, "unit": "µM"}, {"measurement": "DNA fragmentation (apoptosis) in LNCaP cells", "setting": "LNCaP cells", "result": "induce cell apoptosis"}, {"measurement": "IC50", "setting": "SKMEL-188 melanoma cells [2]", "result": 0.57, "unit": "µM"}]}
